# Laboratory results published in ChEMBL document CHEMBL5724696, “Autophagy assay results for EUbOPEN Chemogenomics Library” (2024).
# Values joined by “and” are separate entries in the source; they are usually repeats but may differ in a detail not shown here. Equal values may be shown once.
# How the values were obtained:
# Type in all cases: functional, Homo sapiens
# U2OS [1] = assay: (§1) Here: values are normalized to the negative (DMSO; defined as 0% autophagy induction) and positive (250nM Torin1; mTOR inhibitor; defined as maximal inducer of autophagy = 100%) control compounds and represented as % of autophagy induction. […] The impact of autophagy induction on cells is complex and depends on the affected target. As such, the magnitude of a phenotype may not be equally mirrored in the %-value of autophagy induction and vice versa. The dynamics of the induction may indicate the mode of activation: e.g. activation via phosphorylation or a signaling cascade may occur fast, while activation via transcription factors may take considerably longer. […] Of note, treatment concentrations may be sub-optimal for specific compounds, leading to false negative annotations.; settings: Culturing Media DMEM, 1 % Penicillin/Streptomycin, 10% Fetal bovin serum Add-On: No, Screening Media Control DMEM, Screening Media Samples DMEM
# TERT-RPE1 = assay: as §1; settings: Culturing Media DMEM/F12 (1:1), 1 % Penicillin/Streptomycin, 10% Fetal bovin serum Add-On: No, Screening Media Control DMEM/F12 (1:1), Screening Media Samples DMEM/F12 (1:1)
# U2OS [2] = assay: as §1; settings: Culturing Media DMEM, 1 % Penicillin/Streptomycin, 10% Fetal bovin serum Add-On: No, Screening Media Control DMEM, Screening Media Samples DMEM; remark: listed apart in the source
# [3] = Compound Concentration 0.5 uM, Timepoint 12 hours
# [4] = Compound Concentration 0.5 uM, Timepoint 24 hours
# [5] = Compound Concentration 0.5 uM, Timepoint 36 hours
# [6] = Compound Concentration 0.5 uM, Timepoint 60 hours
# [7] = Compound Concentration 2 uM, Timepoint 12 hours
# [8] = Compound Concentration 2 uM, Timepoint 24 hours
# [9] = Compound Concentration 2 uM, Timepoint 36 hours
# [10] = Compound Concentration 2 uM, Timepoint 60 hours
# [11] = Compound Concentration 10 uM, Timepoint 12 hours
# [12] = Compound Concentration 10 uM, Timepoint 24 hours
# [13] = Compound Concentration 10 uM, Timepoint 36 hours
# [14] = Compound Concentration 10 uM, Timepoint 60 hours
# [15] = Compound Concentration 0.5 uM, Timepoint 12 hours, 12 h, 0.5 µM
# [16] = Compound Concentration 0.5 uM, Timepoint 24 hours, 24 h, 0.5 µM
# [17] = Compound Concentration 0.5 uM, Timepoint 36 hours, 36 h, 0.5 µM
# [18] = Compound Concentration 0.5 uM, Timepoint 60 hours, 60 h, 0.5 µM
# [19] = Compound Concentration 2 uM, Timepoint 12 hours, 12 h, 2 µM
# [20] = Compound Concentration 2 uM, Timepoint 24 hours, 24 h, 2 µM
# [21] = Compound Concentration 2 uM, Timepoint 36 hours, 36 h, 2 µM
# [22] = Compound Concentration 2 uM, Timepoint 60 hours, 60 h, 2 µM
# [23] = Compound Concentration 10 uM, Timepoint 12 hours, 12 h, 10 µM
Structure (SMILES),autophagy induction (U2OS [1]; [3]) [%],autophagy induction (U2OS [1]; [4]) [%],autophagy induction (U2OS [1]; [5]) [%],autophagy induction (U2OS [1]; [6]) [%],autophagy induction (U2OS [1]; [7]) [%],autophagy induction (U2OS [1]; [8]) [%],autophagy induction (U2OS [1]; [9]) [%],autophagy induction (U2OS [1]; [10]) [%],autophagy induction (U2OS [1]; [11]) [%],autophagy induction (U2OS [1]; [12]) [%],autophagy induction (U2OS [1]; [13]) [%],autophagy induction (U2OS [1]; [14]) [%],autophagy induction (TERT-RPE1; [15]),autophagy induction (TERT-RPE1; [16]),autophagy induction (TERT-RPE1; [17]),autophagy induction (TERT-RPE1; [18]),autophagy induction (TERT-RPE1; [19]),autophagy induction (TERT-RPE1; [20]),autophagy induction (TERT-RPE1; [21]),autophagy induction (TERT-RPE1; [22]),other results
CCCCC#Cc1nc(NC)c2ncn([C@@H]3O[C@H](CO)[C@@H](O)[C@H]3O)c2n1,1.872,-1.476,-3.077,-6.595,-4.8354,-5.442,-4.18,-14.3215,-0.5241,-0.2798,-5.149,-3.023,-2.336% and -0.4442%,-5.778% and -2.388%,-6.915% and -5.4%,-6.339% and -4.703%,2.252% and 1.572%,3.405% and -0.3092%,0.8288% and 0.6571%,0.7882% and 0.00413%,"autophagy induction (TERT-RPE1; [23]): 9.462% and -4.43%; autophagy induction (TERT-RPE1; Compound Concentration 10 uM, Timepoint 24 hours, 24 h, 10 µM): 9.8196% and -3.782%; autophagy induction (TERT-RPE1; Compound Concentration 10 uM, Timepoint 36 hours, 36 h, 10 µM): 10.3694% and -2.886%; autophagy induction (TERT-RPE1; Compound Concentration 10 uM, Timepoint 60 hours, 60 h, 10 µM): 10.0597% and -2.862%; autophagy induction (U2OS [2]; [3]): 7.971%; autophagy induction (U2OS [2]; [4]): 2.814%; autophagy induction (U2OS [2]; [5]): -58.1103%; autophagy induction (U2OS [2]; [6]): -0.9818%; autophagy induction (U2OS [2]; [7]): 3.199%; autophagy induction (U2OS [2]; [8]): -2.198%; autophagy induction (U2OS [2]; [9]): -60.437%; autophagy induction (U2OS [2]; [10]): -1.323%; autophagy induction (U2OS [2]; [11]): 0.2414%; autophagy induction (U2OS [2]; [12]): -3.3271%; autophagy induction (U2OS [2]; [13]): -60.2602%; autophagy induction (U2OS [2]; [14]): -0.5763%"
c1cc(CN2CCCNCCNCCCNCC2)ccc1CN1CCCNCCNCCCNCC1 [PLERIXAFOR],9.361,4.086,3.942,-10.4654,-10.5746,-17.2139,-19.8311,-28.2789,-19.8514,-21.1534,-25.1466,-33.2742,-4.475% and 7.798%,-3.816% and 9.011%,-5.185% and 14.9232%,-8.266% and 14.0932%,-1.002% and 11.2768%,-1.015% and 15.5767%,-0.9806% and 19.0771%,-1.796% and 21.8048%,autophagy induction (TERT-RPE1; [23]): -0.2124% and 10.1362%; autophagy induction (U2OS [2]; [3]): 1.944%; autophagy induction (U2OS [2]; [4]): -0.47%; autophagy induction (U2OS [2]; [5]): 1403.21%; autophagy induction (U2OS [2]; [6]): -0.2952%; autophagy induction (U2OS [2]; [7]): -1.895%; autophagy induction (U2OS [2]; [8]): -4.5042%; autophagy induction (U2OS [2]; [9]): -61.4276%; autophagy induction (U2OS [2]; [10]): -2.96%; autophagy induction (U2OS [2]; [11]): -9.041%; autophagy induction (U2OS [2]; [12]): -7.066%; autophagy induction (U2OS [2]; [13]): -62.672%; autophagy induction (U2OS [2]; [14]): -3.919%
